The structures appear in SMILES notation.

Type in all cases: physicochemical
Series [1] can be described thus: Critical water activity: seeded suspension equilibration of Hydrate vs anhydrous Forms I and II in 2-PrOH/water and THF/water. The following applies: for Result (XRPD): analyzed wet. The method, then: The critical water activity between the Hydrate and anhydrous Forms I and II was attempted to be determined at room temperature in 2-PrOH/water and THF/water mixtures. […] After two additional days of stirring at RT, the solid was separated from the liquid by centrifuge filtering.
In order to clarify the root cause of the surprising results regarding the critical water activities, three further experiments were performed. The slurries at water activities of 0.5 and 0.7 were repeated using freshly prepared solvent mixtures and the suspension equilibration at a water activity of 0.7 was also performed in 2-PrOH/water mixture. The formation of thick suspension in 2-PrOH/water mixtures was experienced again; the initially obtained thick suspension turned into a well-stirred slurry upon one day of stirring. Then it was seeded with the three forms and the solid was isolated after additional two days of stirring.

Series [2] in a line: Relative thermodynamic stability of Forms I and II: competitive slurry experiments. The note with it: for Result (XRPD): seeded with Form I + Form II after 4 h, analyzed wet. The method, then:
(§1) The relative thermodynamic stability of the polymorphs was determined by slurry experiments at RT and 5° C. […] The stability was further investigated at 5° C. and in addition, another experiment was performed at MEK at RT. MEK was chosen as suspending media because that was the only solvent where Form II was formed when slurrying the starting material. […] The experiment at 5° C. in TBME was actually carried out only as a control.

Series [3] in a line: Solubility in suspending medium. The note with it: in MEK. The method, then:
as §1

Series [4] can be described thus: Solvate formation in suspension crystallization at RT. The method, then:
1) About 100 mg of 5-fluoro-4-imino-3-methyl-1-tosyl-3,4-dihydropyrimidin-2(1H)-one was suspended in 1.0 ml of 2-PrOH previously dried over 4 Å molecular sieves and the suspension was stirred for 11 d at RT and filtered through a 0.2-μm PTFE centrifuge filter and analyzed without drying, or dried in dry N2 stream at RT for 1 h.
2) About 100 mg of 5-fluoro-4-imino-3-methyl-1-tosyl-3,4-dihydropyrimidin-2(1H)-one was suspended in 1.0 ml of tert-butyl methyl ether (TBME) previously dried over 4 Å molecular sieves and the suspension was stirred for 11 d at RT, filtered through a 0.2-μm PTFE centrifuge filter and analyzed without drying.
3) About 100 mg of 5-fluoro-4-imino-3-methyl-1-tosyl-3,4-dihydropyrimidin-2(1H)-one was suspended in 1.0 ml of toluene previously dried over 4 Å molecular sieves and the suspension was stirred for 11 d at RT, filtered through a 0.2-μm PTFE centrifuge filter and analyzed without drying.
Form II was prepared by suspension crystallization. About 120 mg of 5-fluoro-4-imino-3-methyl-1-tosyl-3,4-dihydropyrimidin-2(1H)-one was suspended in 0.8 ml of methyl ethyl ketone (MEK) previously dried over 4 Å molecular sieves and the suspension was stirred for 11 d at room temperature and filtered through a 0.2-μm PTFE centrifuge filter. The solid was allowed to dry under ambient conditions for 1 d.

Series [5] in a line: TG-FTIR thermogram, beginning of decomposition. The following applies: N2 atmosphere; 10° C./min, 25 to 300° C. The method, then:
FT-Raman Spectroscopy: Bruker Multi-RAM with OPUS 6.5 software; Nd:YAG 1064-nm excitation, Ge detector, 3500-50 cm-1 range; typical measurement conditions: 300 mW nominal laser power, 64 scans, 2 cm-1 resolution; samples pressed into the cavity of aluminum sample holders TG-FTIR: Netzsch Thermo-Microbalance TG 209 with Bruker FT-IR Spectrometer Vector 22; aluminum crucible (with microhole); N2 atmosphere; 10° C./min heating rate, from 25 to 300° C.

Series [6] can be described thus: Solid-state hygroscopicity / stability against hydration.
Series [7] is described as follows: Dehydration of the Hydrate, DSC in an open pan. The method, then:
DSC: TA Instruments DSC Q2000; hermetically closed gold crucible; N2 atmosphere; 10° C./min heating rate, from 20 to 190° C. The melting point is understood as the peak onset.
1) Measuring by DSC in an open pan, the water of crystallization evaporates in the temperature range of 20-100° C. Then a sharp endothermic event due to melting follows in the thermogram at 159° C. (FIG. 10).

For `Cc1ccc(S(=O)(=O)n2cc(F)c(=N)n(C)c2=O)cc1` [PP539-P1, 5-fluoro-4-imino-3-methyl-1-tosyl-3,4-dihydropyrimidin-2(1H)-one], the “Result (XRPD)” value in series [1] (2PrOH/water = 89.6/10.4, aw 0.7, seeded with HH + Form I + Form II after 1 d) was “HH″ + traces”; in series [1] (2PrOH/water = 94.7/5.3, aw 0.5, RT, seeded with HH + Form I + Form II after 3 d), “HH′”; in series [1] (2PrOH/water = 97.5/2.5, aw 0.3, RT, seeded with HH + Form I + Form II after 3 d), “Form I”; in series [1] (2PrOH/water = 99.3/0.7, aw 0.1, RT, seeded with HH + Form I + Form II after 3 d, 2 d more stirring) it was “Form I”; in series [1] (THF/water = 79.7/21.3, aw 0.9, RT, seeded with HH + Form I + Form II after 3 d), “HH″”; in series [1] (THF/water = 96.4/3.6, aw 0.7, RT, seeded with HH + Form I + Form II after 3 d), “Form II”. The “Result (XRPD)” value in series [1] (repeat, fresh solvent, 2PrOH/water = 94.7/5.3, aw 0.5, seeded with HH + Form I + Form II after 1 d) is given as “HH″ + some”; in series [1] (repeat, fresh solvent, THF/water = 96.4/3.6, aw 0.7, seeded with HH + Form I + Form II after 1 d), “HH′”; in series [2] (MEK (dry), 5° C.), “Form S9 + Form I”; in series [2] (MEK (dry), 22° C.), “Form I + Form II”; in series [2] (TBME (dry), 5° C.), “Form I”. For the same molecule, in series [3], the solubility result is on record as “rather high”. For the same molecule, the “formation of thermodynamically stable solvates” value was “does not form thermodynamically stable solvates” in series [4] (with MEK at RT, Form II formed); “does not form thermodynamically stable solvates” in series [4] (with toluene, 2-PrOH and TBME at RT, Form I formed).
For the molecule `Cc1ccc(S(=O)(=O)n2cc(F)c(=N)n(C)c2=O)cc1` [Form S5, 5-fluoro-4-imino-3-methyl-1-tosyl-3,4-dihydropyrimidin-2(1H)-one], the “decomposition beginning at a temperature (TG-FTIR)” value (“decomposition beginning” below) in series [5] is “greater than 180 °C”.
Turning to `Cc1ccc(S(=O)(=O)n2cc(F)c(=N)n(C)c2=O)cc1` [Form I, 5-fluoro-4-imino-3-methyl-1-tosyl-3,4-dihydropyrimidin-2(1H)-one], the “decomposition beginning” value in series [5] was “greater than 210 °C”. In addition, the “relative thermodynamic stability among the three forms suspended” value in series [1] (water activity of 0.3 and below, RT) was “thermodynamically most stable”. Further, in series [1] (water activity of 0.3 or less at room temperature), the “thermodynamic stability vs the hydrate form” value was “thermodynamically more stable than the hydrate form”. In series [6], the hygroscopicity result is given as “non-hygroscopic”. Also, the “kinetic stability against hydration” value in series [6] (at higher relative humidity) was “high kinetic stability against hydration”. In addition, the “relative stability vs Form II in competitive slurry” value in series [2] (TBME at 5° C.) was “unequivocally more stable than Form II”. Also, the “thermodynamic stability vs polymorph Form II” value in series [2] (at 5° C. and above) is “thermodynamically more stable than polymorph Form II”. Besides, the “relative thermodynamic stability vs Form II” value in series [2] (water activities of 0.1 and 0.3, RT) was “more stable”.
For the molecule `Cc1ccc(S(=O)(=O)n2cc(F)c(=N)n(C)c2=O)cc1` [Hydrate, 5-fluoro-4-imino-3-methyl-1-tosyl-3,4-dihydropyrimidin-2(1H)-one], the “decomposition beginning” value in series [5] was “greater than 190 °C”. In addition, in series [1] (water activity of 0.5 and 0.9, RT (Table 1)), the “relative thermodynamic stability among the three forms suspended” value was “more stable”. Besides, in series [1] (water activity of 0.5 and higher at RT), the “relative stability vs Form I and Form II (ultimate finding)” value was “more stable than the two anhydrous forms”. Also, in series [7], the “temperature range in which the water of crystallization evaporates” value is 20-100 °C. Moreover, the “form resulting from dehydration” value in series [7] (melting at 159° C. coincides with Form I) is “anhydrous Form I”.
In the case of `Cc1ccc(S(=O)(=O)n2cc(F)c(=N)n(C)c2=O)cc1` [Form S1, 5-fluoro-4-imino-3-methyl-1-tosyl-3,4-dihydropyrimidin-2(1H)-one], the “decomposition beginning” value in series [5] was “greater than 200 °C”.
Same read-out and setting: in the case of `Cc1ccc(S(=O)(=O)n2cc(F)c(=N)n(C)c2=O)cc1` [Form S8, 5-fluoro-4-imino-3-methyl-1-tosyl-3,4-dihydropyrimidin-2(1H)-one] it was “greater than 180 °C”.
As for `Cc1ccc(S(=O)(=O)n2cc(F)c(=N)n(C)c2=O)cc1` [Form II, 5-fluoro-4-imino-3-methyl-1-tosyl-3,4-dihydropyrimidin-2(1H)-one], the “decomposition beginning” value in series [5] is “greater than 210 °C”. Besides, the “relative thermodynamic stability among the three forms suspended” value in series [1] (water activity of 0.7, RT (Table 1), patent assumes this finding untrue) is “more stable”.
